Structures can show the parent of a compound that is named as a salt.
Assays:
Solubility test = settings: for Solubility in pH 2.0 buffer solution: 50 mmol/L glycine buffer solution (pH 2.0), room temperature, 24 hours shaking; for solubility at 24 hours: pH 2, aqueous buffer, thermodynamic from solid
Experimental: A water-soluble prodrug was added into 50 mmol/L glycine buffer solution (pH 2.0). After shaking at room temperature for 24 hours, the mixture was filtered through a membrane filter, and then the filtrate was measured with HPLC.
The measurement condition of HPLC is as described below. HPLC condition column: Acquity UPLC BEH C18, 1.7 um, 50×2.1 mm
Mobile phase: A: 0.1% trifluoroacetic acid-containing water

[1] = Evaluation of a conversion rate to 2-acetylnaphtho[2,3-b]furan-4,9-dione in human plasma; type: in vitro ADME; settings: Human plasma, 1 umol/L, 37° C., incubation time 120 min
Experimental: (§1) For test compounds, the decrease rate of the test compounds and the conversion rate thereof to 2-acetylnaphtho[2,3-b]furan-4,9-dione in human plasma, CD1 mouse plasma, and pH 7.4 phosphate buffer solution were measured.
(§2) Test compounds were incubated at the concentration of 1 umol/L in human plasma (cat. no. 12250210, COSMO BIO), CD1 mouse plasma (cat. no. AP3054, KAC), and phosphate buffer solution at 37° C., and removed at predetermined times (0, 5, 10, 30, 60, and 120 minutes). After protein-removing treatment was performed, they are analyzed with LC-MS. It should be noted that the protein-removing treatment used acetonitrile containing: 10% volume of 1 mol/L hydrochloric acid; 1% volume of 46% citric acid; and phenytoin as an internal standard.
(§3) The measurement condition of LC-MS is as described below. LC-MS condition column: Kinetex 2.6 u PFP 100 A 50×2.1 mm Column temperature: 40° C.
(§4) Mobile phase: A: 0.1% formic acid-containing water
(§5) • B: 0.1% formic acid-containing acetonitrile A/B(min): 95/5(0)→5/95(3)→5/95(4)→95/5(4.1)→95/5(6) Flow rate: 0.4 mL/min Detection: ESI (positive mode) Injection volume: 10 uL
In the same way as Example 6, the incubation time was set as 120 minutes later, and the conversion rate of each of various test compounds to 2-acetylnaphtho[2,3-b]furan-4,9-dione in human plasma, CD1 mouse plasma, and pH 7.4 phosphate buffer solution was measured.

[2] = Evaluation of a conversion rate to 2-acetylnaphtho[2,3-b]furan-4,9-dione in pH 7.4 phosphate buffer solution; type: physicochemical; settings: Phosphate buffer solution (pH 7.4), 1 umol/L, 37° C., incubation time 120 min
Experimental: as §1, §2, §3, §4, §5
Measurement values are calculated from the peak area ratio in LC-MS between an internal standard material, phenytoin and an active form, 2-acetylnaphtho[2,3-b]furan-4,9-dione, and are expressed in %.
In the same way as Example 6, the incubation time was set as 120 minutes later, and the conversion rate of each of various test compounds to 2-acetylnaphtho[2,3-b]furan-4,9-dione in human plasma, CD1 mouse plasma, and pH 7.4 phosphate buffer solution was measured. A series of the present compounds were confirmed to be converted to 2-acetylnaphtho[2,3-b]furan-4,9-dione in pH 7.4 phosphate buffer solution in addition to human plasma and CD1 mouse plasma. Therefore, a series of the test compounds of the present invention were confirmed to be converted to the activated form via a route other than an enzymatic conversion.

| Compound | Solubility in pH 2.0 buffer solution (Solubility test) [mg/mL] | % Measurement value (conversion rate to 2-acetylnaphtho[2,3-b]furan-4,9-dione) [1] [%] | % Measurement value (conversion rate to 2-acetylnaphtho[2,3-b]furan-4,9-dione) [2] [%] | solubility at 24 hours (Solubility test) [µg/mL] | % Measurement value (conversion rate to 2-acetylnaphtho[2,3-b]furan-4,9-dione) ([2]; trifluoroacetate salt monohydrate) [%] | % Measurement value (conversion rate to 2-acetylnaphtho[2,3-b]furan-4,9-dione) ([2]; monohydrate) [%] |
| --- | --- | --- | --- | --- | --- | --- |
| COC(=O)CNCCCNC(=O)Oc1c2ccccc2c(OC(=O)NCCCNCC(=O)OC)c2oc(C(C)=O)cc12.Cl.Cl [Example 47] | >5.0 | 92 | 65 | – | – | – |
| CC(=O)c1cc2c(OC(=O)NCCNC(C)C(=O)O)c3ccccc3c(OC(=O)NCCNC(C)C(=O)O)c2o1.Cl.Cl (stereo not drawn) [Example 50] | 0.1 | 96 | 61 | – | – | – |
| CC(=O)c1cc2c(OC(=O)NCCNCc3ccccc3)c3ccccc3c(OC(=O)NCCNCc3ccccc3)c2o1.Cl.Cl [Example 55] | >5.0 | 86 | 63 | – | – | – |
| COC(=O)OCCNCCNC(=O)Oc1c2ccccc2c(O)c2cc(C(C)=O)oc12.Cl [Example 91] | 3.6 | 61 | 45 | – | – | – |
| CC(=O)c1cc2c(O)c3ccccc3c(OC(=O)NCCCNCCS(C)(=O)=O)c2o1.Cl [Example 82] | 0.1 | 74 | 25 | – | – | – |
| CC(=O)c1cc2c(OC(=O)NCCCNCC(=O)NCC(=O)O)c3ccccc3c(OC(=O)NCCCNCC(=O)NCC(=O)O)c2o1.Cl.Cl [Example 64] | >5.0 | 57 | 40 | – | – | – |
| CC(=O)c1cc2c(OC(=O)NCCCNCC(F)(F)F)c3ccccc3c(OC(=O)NCCCNCC(F)(F)F)c2o1.Cl.Cl [Example 53] | >5.0 | 100 | 41 | – | – | – |
| CC(=O)c1cc2c(OC(=O)NCCNCCS(C)(=O)=O)c3ccccc3c(OC(=O)NCCNCCS(C)(=O)=O)c2o1.Cl.Cl [Example 61] | 2.5 | 87 | 55 | – | – | – |
| CC(=O)c1cc2c(O)c3ccccc3c(OC(=O)NCCCNCCS(=O)(=O)N(C)C)c2o1.Cl [Example 80] | 1.0 | 54 | 32 | – | – | – |
| CC(=O)c1cc2c(OC(=O)NCCCNCCS(C)(=O)=O)c3ccccc3c(OC(=O)NCCCNCCS(C)(=O)=O)c2o1.Cl.Cl [Example 60] | >5.0 | 68 | 39 | – | – | – |
| CC(=O)c1cc2c(OC(=O)NCCNCCS(=O)(=O)N(C)C)c3ccccc3c(OC(=O)NCCNCCS(=O)(=O)N(C)C)c2o1.Cl.Cl [Example 57] | >5.0 | 68 | 34 | – | – | – |
| COC(=O)NCCNCCNC(=O)Oc1c2ccccc2c(O)c2cc(C(C)=O)oc12.Cl [Example 89] | >5.0 | 63 | 58 | – | – | – |
| CC(=O)c1cc2c(OC(=O)NCCCNCCN)c3ccccc3c(OC(=O)NCCCNCCN)c2o1.Cl.Cl [Example 52] | >5.0 | 78 | 55 | – | – | – |
| COC(=O)NCCNCCCNC(=O)Oc1c2ccccc2c(OC(=O)NCCCNCCNC(=O)OC)c2oc(C(C)=O)cc12.Cl.Cl [Example 68] | >5.0 | 73 | 59 | – | – | – |
| CC(=O)c1cc2c(OC(=O)NCCNCC(=O)N3CCC3)c3ccccc3c(OC(=O)NCCNCC(=O)N3CCC3)c2o1.Cl.Cl [Example 62] | >5.0 | 65 | 37 | – | – | – |
| CC(=O)c1cc2c(OC(=O)NCCCNCC(=O)N3CCC3)c3ccccc3c(OC(=O)NCCCNCC(=O)N3CCC3)c2o1.Cl.Cl [Example 63] | >5.0 | 59 | 51 | – | – | – |
| CC(=O)c1cc2c(O)c3ccccc3c(OC(=O)NCCCNCCOC(N)=O)c2o1.Cl [Example 88] | 3.2 | 27 | 26 | – | – | – |
| CC(=O)c1cc2c(O)c3ccccc3c(OC(=O)NCCNCC(=O)N3CCC3)c2o1.Cl [Example 85] | 4.1 | 38 | 37 | – | – | – |
| COC(=O)NCCNCCNC(=O)Oc1c2ccccc2c(OC(=O)NCCNCCNC(=O)OC)c2oc(C(C)=O)cc12.Cl.Cl [Example 67] | >5.0 | 78 | 60 | – | – | – |
| CC(=O)c1cc2c(OC(=O)NCCNCC(=O)O)c3ccccc3c(OC(=O)NCCNCC(=O)O)c2o1 [Example 98, 2,2′-((((((2-acetylnaphtho[2,3-b]furan-4,9-diyl)bis(oxy))bis(carbonyl))bis(azanediyl))bis(ethane-2,1-diyl))bis(azanediyl))diacetic acid 1/3 trifluoroacetate salt monohydrate] | – | – | – | > 5000 | 66 | – |
| CC(=O)c1cc2c(OC(=O)NCCNCCS(=O)(=O)N3CCCCC3)c3ccccc3c(OC(=O)NCCNCCS(=O)(=O)N3CCCCC3)c2o1.Cl.Cl [Example 56] | 3.3 | 63 | 30 | – | – | – |
| CC(=O)c1cc2c(O)c3ccccc3c(OC(=O)NCCNCCS(=O)(=O)N(C)C)c2o1.Cl [Example 79] | 0.3 | 71 | 39 | – | – | – |
| COC(=O)[C@@H](N)CCNC(=O)Oc1c2ccccc2c(OC(=O)NCC[C@H](N)C(=O)OC)c2oc(C(C)=O)cc12 [Example 108, Dimethyl 4,4′-((((2-acetylnaphtho[2,3-b]furan-4,9-diyl)bis(oxy))bis(carbonyl))bis(azanediyl))(2S,2′S)-bis(2-aminobutanoate)ditrifluoroacetate salt] | >5.0 | – | 44 | – | – | – |
| COC(=O)[C@@H](N)CCNC(=O)Oc1c2ccccc2c(OC(=O)NCC[C@H](N)C(=O)OC)c2oc(C(C)=O)cc12 [Example 105, Dimethyl 4,4′-((((2-acetylnaphtho[2,3-b]furan-4,9-diyl)bis(oxy))bis(carbonyl))bis(azanediyl))(2S,2′S)-bis(2-aminobutanoate)ditoluenesulfonate salt monohydrate] | – | – | – | > 5000 | – | 65 |
